Measured values reported in the supplement of paper PMC10307832.

Legend:
Assay in all cases: relative viability (nuclei count vs DMSO), 5 days (fraction); higher = more cells survive
[1] = compound: O=c1[nH]cc(F)c(=O)[nH]1 [5-Fluorouracil] + CS(=O)(=O)CCNCc1ccc(-c2ccc3ncnc(Nc4ccc(OCc5cccc(F)c5)c(Cl)c4)c3c2)o1 [Lapatinib] (partner 2 µM)
Method in brief: (§1)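 Lung cancer cell lines in 1536-well plates were dosed by pin tool the day after seeding, either with one drug alone or with a fixed anchor-drug dose plus five library-drug doses (not always all listed) in √10 steps. After 5 days, cells were fixed and their nuclei stained in one step (final 0.05% Triton X-100, 1% formaldehyde, 1 ug/ml Hoechst), then counted on 4× images. Relative viability is the nuclei count in treated wells divided by that in vehicle wells. Values are medians of duplicate plates.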

[2] = compound: CN[C@@H]1C[C@H]2O[C@@](C)([C@@H]1OC)n1c3ccccc3c3c4c(c5c6ccccc6n2c5c31)C(=O)NC4 [Staurosporine] + Nc1nc2[nH]cc(CCc3ccc(C(=O)N[C@@H](CCC(=O)O)C(=O)O)cc3)c2c(=O)[nH]1 [Pemetrexed] (partner 0.2 µM)
Method in brief: as §1

[3] = compound: O=c1[nH]cc(F)c(=O)[nH]1 [5-Fluorouracil] + CC(C)C[C@H](NC(=O)[C@H](Cc1ccccc1)NC(=O)c1cnccn1)B(O)O [Bortezomib] (partner 0.002 µM)
Method in brief: as §1

[4] = compound: O=c1[nH]cc(F)c(=O)[nH]1 [5-Fluorouracil] + Cc1cc(Nc2cc(N3CCN(C)CC3)nc(Sc3ccc(NC(=O)C4CC4)cc3)n2)n[nH]1 [Tozasertib] (partner 0.1 µM)
Method in brief: as §1

Row | Cell Line | relative viability ([1]; first compound 0.02 µM) | relative viability ([1]; first compound 0.2 µM) | relative viability ([1]; first compound 0.6325 µM) | relative viability ([1]; first compound 2 µM) | relative viability ([2]; first compound 0.005 µM) | relative viability ([2]; first compound 0.01581 µM) | relative viability ([2]; first compound 0.05 µM) | relative viability ([2]; first compound 0.1581 µM) | relative viability ([2]; first compound 0.5 µM) | relative viability ([3]; first compound 0.02 µM) | relative viability ([3]; first compound 0.2 µM) | relative viability ([3]; first compound 0.6325 µM) | relative viability ([3]; first compound 2 µM) | relative viability ([4]; first compound 0.2 µM) | relative viability ([4]; first compound 0.6325 µM) | relative viability ([4]; first compound 2 µM) | relative viability ([4]; first compound 0.02 µM)
1 | HCC-827 | 0.159 | 0.203 | 0.191 | 0.187 | 0.266 | 0.278 | 0.246 | 0.171 | 0.154 | 0.805 | 1.1 | 0.733 | 0.596 | 0.433 | 0.391 | 0.29 | 
2 | EMC-BAC-2 | 0.968 | 0.975 | 0.858 | 0.907 | 0.362 | 0.273 | 0.258 | 0.255 | 0.224 | 1.16 | 1.17 | 1.1 | 1.02 | 0.292 | 0.33 | 0.287 | 0.293
3 | NCI-H647 | 1.14 | 1.2 | 1.07 | 0.687 | 0.118 | 0.0997 | 0.104 | 0.0736 | 0.0566 | 0.925 | 1.15 | 0.992 | 0.61 | 0.415 | 0.232 | 0.243 | 0.146
4 | NCI-H1792 | 0.893 | 0.853 | 0.235 | 0.161 | 0.28 | 0.0706 | 0.0856 | 0.056 | 0.0352 | 1.03 | 0.84 | 0.272 | 0.185 |  |  |  | 
5 | NCI-H2009 | 0.941 | 0.919 | 0.764 | 0.812 | 0.895 | 0.389 | 0.222 | 0.156 | 0.112 | 1.04 | 1.01 | 0.722 | 0.463 | 0.793 | 0.684 | 0.474 | 0.802
6 | NCI-H2347 | 1.07 | 0.796 | 0.48 | 0.436 | 0.36 | 0.321 | 0.32 | 0.329 | 0.291 | 0.962 | 1.1 | 0.367 | 0.446 | 0.425 | 0.303 | 0.292 | 0.606
7 | NCI-H522 |  |  |  |  | 1.08 | 0.7 | 0.847 | 0.742 | 0.579 |  |  |  |  | 0.556 | 0.586 | 0.48 | 0.515
8 | NCI-H1437 |  | 0.231 | 0.142 | 0.142 | 0.268 | 0.214 | 0.182 | 0.17 | 0.131 |  | 0.218 | 0.144 | 0.128 | 0.259 | 0.191 | 0.139 | 0.34
9 | SK-MES-1 | 0.471 | 0.494 | 0.373 | 0.357 | 0.543 | 0.277 |  | 0.145 | 0.141 |  |  |  |  | 0.408 | 0.319 | 0.28 | 1.05
10 | NCI-H3122 | 0.994 | 0.903 | 0.338 | 0.246 | 0.183 |  | 0.177 | 0.167 | 0.105 | 0.998 | 0.897 | 0.353 | 0.298 | 0.356 | 0.203 | 0.157 | 0.382
11 | NCI-H1299 | 1.05 | 0.978 | 0.959 | 0.817 |  |  |  |  |  | 1.07 | 1.05 | 1.04 | 0.959 |  |  |  | 
12 | NCI-H1563 | 0.769 | 0.942 | 0.975 | 0.74 | 0.543 | 0.39 | 0.522 | 0.45 | 0.41 | 0.895 | 0.859 | 0.841 | 0.718 |  |  |  | 
13 | NCI-H1944 | 0.843 | 0.908 | 0.474 | 0.268 | 0.626 | 0.311 | 0.26 | 0.164 | 0.185 |  |  |  |  | 0.256 | 0.218 | 0.153 | 0.253
14 | LK-2 | 1.17 | 1.08 | 0.697 | 0.535 | 0.331 | 0.255 | 0.269 | 0.0688 | 0.0539 |  |  |  |  | 0.176 | 0.16 | 0.189 | 0.169
15 | Calu-6 | 1.04 | 1.01 | 0.908 | 0.537 |  |  |  |  |  | 0.984 | 0.947 | 0.801 | 0.42 |  |  |  | 
16 | NCI-H1395 | 0.724 | 1.12 | 1.01 | 0.825 | 0.789 | 0.341 | 0.316 | 0.31 | 0.255 |  |  |  |  | 0.837 | 0.737 | 0.8 | 0.652
17 | NCI-H727 | 1.08 | 1 | 0.743 | 0.594 |  |  |  |  |  | 1 | 1.01 | 0.776 | 0.782 | 0.646 | 0.691 | 0.571 | 0.659
18 | EBC-1 | 0.189 | 0.187 | 0.178 | 0.249 |  |  |  |  |  | 0.64 | 0.553 | 0.619 | 0.477 |  |  |  | 
19 | NCI-H1648 |  |  |  |  | 0.582 | 0.321 | 0.344 | 0.325 | 0.42 |  |  |  |  | 0.457 | 0.372 | 0.207 | 0.442
20 | COR-L23 | 1.03 | 0.921 | 0.48 | 0.253 | 0.191 | 0.151 | 0.161 | 0.135 | 0.0959 | 1.04 | 0.85 | 0.41 | 0.221 |  |  |  | 
21 | NCI-H1703 | 1.23 | 1.44 | 1.09 | 0.556 |  |  |  |  |  | 0.326 | 0.36 | 0.314 | 0.365 |  |  |  | 
22 | ChaGo-K-1 |  |  |  |  | 0.262 |  | 0.251 | 0.141 | 0.163 | 0.955 | 1.04 | 0.7 | 0.705 |  |  |  | 
23 | SW 900 |  |  |  |  | 0.404 | 0.356 | 0.296 | 0.161 | 0.115 |  |  |  |  | 0.644 | 0.602 | 0.421 | 0.595
24 | NCI-H2342 |  |  |  |  | 0.773 | 0.746 | 0.433 | 0.315 | 0.319 |  |  |  |  | 0.471 | 0.626 | 0.443 | 0.484
25 | A549 | 1.09 | 0.656 | 0.456 | 0.135 |  |  |  |  |  |  |  |  |  |  |  |  | 
26 | LCLC-103H |  |  |  |  | 0.405 | 0.238 | 0.336 | 0.247 | 0.213 | 0.99 | 1.18 | 0.931 | 0.632 | 0.511 | 0.305 | 0.212 | 0.536
